Experimental data reported in patent publication US12522594B2, “2-heteroaryl-3-oxo-2,3-dihydropyridazine-4-carboxamides for the treatment of cancer” (Deutsches Krebsforschungszentrum, priority 2017, dated 2026).
Values joined by “and” are separate entries in the source; they are usually repeats but may differ in a detail not shown here. Equal entries are not always repeated.

How the values were obtained:
Type in all cases: cell-based
[1] = target: T1, AHR (Homo sapiens, UniProt P35869); assay: In vitro assay 3: AHR-regulated CYP1A1 expression in human cell line (U937, qPCR, KA stimulation); conditions: U937 cells, 200 uM KA, 6 hours, CYP1A1 expression by qPCR; read-out: Assay 3: Hum CYP1A1 Antagonism IC50
T1 sequence (P35869 11-848): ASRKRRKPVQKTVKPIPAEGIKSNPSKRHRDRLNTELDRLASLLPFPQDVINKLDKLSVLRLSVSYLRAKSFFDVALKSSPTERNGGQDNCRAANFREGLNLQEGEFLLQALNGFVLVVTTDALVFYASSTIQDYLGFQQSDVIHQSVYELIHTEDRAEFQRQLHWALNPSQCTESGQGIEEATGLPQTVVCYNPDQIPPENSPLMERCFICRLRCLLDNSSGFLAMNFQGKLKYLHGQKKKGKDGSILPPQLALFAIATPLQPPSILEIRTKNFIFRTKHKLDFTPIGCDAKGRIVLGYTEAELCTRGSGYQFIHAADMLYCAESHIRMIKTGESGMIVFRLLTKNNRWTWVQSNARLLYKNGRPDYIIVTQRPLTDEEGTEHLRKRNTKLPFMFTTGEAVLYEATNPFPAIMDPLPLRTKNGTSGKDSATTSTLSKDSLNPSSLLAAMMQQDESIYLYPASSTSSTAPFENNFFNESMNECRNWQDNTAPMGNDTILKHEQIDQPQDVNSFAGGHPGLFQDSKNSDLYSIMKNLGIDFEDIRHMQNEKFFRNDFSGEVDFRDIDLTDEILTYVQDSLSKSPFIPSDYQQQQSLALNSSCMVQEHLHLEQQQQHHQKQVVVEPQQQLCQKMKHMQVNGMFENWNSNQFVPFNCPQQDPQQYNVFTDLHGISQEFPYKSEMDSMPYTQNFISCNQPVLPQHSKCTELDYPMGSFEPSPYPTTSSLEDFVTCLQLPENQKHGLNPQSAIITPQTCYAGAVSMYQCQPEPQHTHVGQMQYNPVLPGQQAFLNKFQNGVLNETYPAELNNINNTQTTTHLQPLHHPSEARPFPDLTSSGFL
Outline: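 U937 human monocytic cells were stimulated with 200 uM KA for 6 h, with or without compound at eight concentrations from 1 nM to 3 uM, in duplicate. CYP1A1 mRNA was quantified by Taqman qPCR as fold expression normalised to HPRT. Unstimulated cells served as negative control.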

[2] = tested on: human monocytes; assay: In vitro assay 4: rescue of TNFα production from human primary monocytes (LPS + KA); conditions: one value per donor; for Individual Donors Conc of highest rescue: concentration (of 1, 0.3, 0.1 uM tested) at which highest TNFα rescue was observed; for Individual Donors % rescue TNFα normalised to ref cmpd: human monocytes, 10 ng/mL LPS + 200 uM KA, 18 hours, highest percent rescue relative to highest rescue with GNF-351
Method: In Vitro Assay 4: Rescue of TNFα Production from Human Primary Monocytes
The ability of the substances to enhance immune cell activity was determined. The substances were tested for their capacity to reverse KA-induced inhibition of TNFα production by LPS-stimulated human monocytes. Human monocytes were purified by negative selection from donor PBMCs using Miltenyi beads and seeded at 2×10^5 cells/well in complete growth medium (RPMI 1640, 10% FCS). Monocytes were incubated with 10 ng/mL LPS (O127:B8, #L4516, Sigma) and 200 uM KA (#3375, Sigma) and substances were added at concentrations of 1 uM, 0.3 uM and 0.1 uM and cultured for 18 hours. LPS alone served as the positive control. TNFα production in the supernatant was measured by Meso Scale Discovery immunoassay and the ability of the substances to rescue TNFα production was calculated as a percentage of LPS stimulation and KA-induced inhibition and normalized to the donor-specific response with the reference AHR antagonist compound GNF-351 (Smith et al., J Pharmacol Exp Ther, 2011, 338(1):318-27).

[3] = target: T1, AHR; assay: In vitro assay 1: antagonism in human cell line (transactivation assay, U87 cells prestimulated with kynurenic acid, DRE firefly luciferase reporter); parameters: host or cells: U87 glioblastoma cells, stably transfected with DRE firefly luciferase and renilla reporter constructs; conditions: 150 uM kynurenic acid, 20 hours, read-out: Assay 1: AHR-luc Hum Antagonism IC50
Outline: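 U87 glioblastoma cells with endogenous AHR, stably carrying a DRE-driven firefly luciferase reporter and a constitutive renilla reporter. Cells prestimulated with the AHR agonist kynurenic acid before compound addition; data normalized to positive and negative controls.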

[4] = target: T1, AHR; assay: In vitro assay 2: agonism in human cell line (transactivation assay, U87 cells, DRE firefly luciferase reporter); parameters: host or cells: U87 glioblastoma cells, stably transfected with DRE firefly luciferase and renilla reporter constructs; conditions: no kynurenic acid, 20 hours, read-out: Assay 2: AHR-luc Hum Agonism IC50
Outline: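 U87 glioblastoma cells with endogenous AHR, stably carrying DRE-driven firefly luciferase and constitutive renilla reporters. 300 uM kynurenic acid served as positive activation control; data normalized to positive and negative controls.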

Structure (SMILES)	IC50 [1]	IC50 [3]	IC50 [4]	Individual Donors Conc of highest rescue [2]	Individual Donors % rescue TNFα normalised to ref cmpd [2]
Cn1cc(-n2nc(-c3ccc(Cl)cc3)cc(C(=O)NCC(O)C(F)F)c2=O)cn1 (stereo not drawn) [Example 21, 6-(4-Chlorophenyl)-N-(3,3-difluoro-2-hydroxypropyl)-2-(1-methyl-1H-pyrazol-4-yl)-3-oxo-2,3-dihydropyridazine-4-carboxamide]	18.2 nM	28 nM	> 20000 nM	0.3 µM and 1 µM	87% and 77%
Cc1ccc(-c2cc(C(=O)NCC(O)C(F)F)c(=O)n(-c3cnn(C)c3)n2)cc1 (stereo not drawn) [Example 13, N-(3,3-Difluoro-2-hydroxypropyl)-6-(4-methylphenyl)-2-(1-methyl-1H-pyrazol-4-yl)-3-oxo-2,3-dihydropyridazine-4-carboxamide]	20 nM	32.5 nM	> 20000 nM	1 µM	24% and 85%
O=C(NCC(O)C(F)F)c1cc(-c2ccc(Cl)cc2)nn(-c2cccnc2)c1=O (single isomer, unassigned; (+)) [Example 88, (+)-6-(4-Chlorophenyl)-N-(3,3-difluoro-2-hydroxypropyl)-3-oxo-2-(pyridin-3-yl)-2,3-dihydropyridazine-4-carboxamide]	–	78 nM	> 20000 nM	1 µM	69% and 35%
COCC(O)CNC(=O)c1cc(-c2ccc(Cl)cc2)nn(-c2cnn(C)c2)c1=O (stereo not drawn) [Example 24, 6-(4-Chlorophenyl)-N-(2-hydroxy-3-methoxypropyl)-2-(1-methyl-1H-pyrazol-4-yl)-3-oxo-2,3-dihydropyridazine-4-carboxamide]	–	87.5 nM	> 20000 nM	0.3 µM and 1 µM	84% and 59%
Cn1cc(-n2nc(-c3ccc(Cl)cc3)cc(C(=O)NC[C@H](O)CO)c2=O)cn1 [Example 27, 6-(4-Chlorophenyl)-N-[(2S)-2,3-dihydroxypropyl]-2-(1-methyl-1H-pyrazol-4-yl)-3-oxo-2,3-dihydropyridazine-4-carboxamide]	–	177 nM	> 20000 nM	1 µM and 0.3 µM	87% and 105%
Cc1ccc(-c2cc(C(=O)NC(C)CO)c(=O)n(-c3cnn(C)c3)n2)cc1 (stereo not drawn) [Example 7, N-(1-Hydroxypropan-2-yl)-6-(4-methylphenyl)-2-(1-methyl-1H-pyrazol-4-yl)-3-oxo-2,3-dihydropyridazine-4-carboxamide]	–	20.5 nM	> 20000 nM	0.1 μM and 1 μM (2×)	126% and 63% and 49%
Cn1cc(-n2nc(-c3ccc(Cl)cc3)cc(C(=O)NCC(O)C(F)F)c2=O)cn1 (single isomer, unassigned; (+)) [Example 23, (+)-6-(4-Chlorophenyl)-N-(3,3-difluoro-2-hydroxypropyl)-2-(1-methyl-1H-pyrazol-4-yl)-3-oxo-2,3-dihydropyridazine-4-carboxamide]	–	45.7 nM	> 20000 nM	1 µM	274% and 81%
C[C@H](CO)NC(=O)c1cc(-c2ccc(Cl)cc2)nn(-c2cccnc2)c1=O [Example 69, 6-(4-Chlorophenyl)-N-[(2R)-1-hydroxypropan-2-yl]-3-oxo-2-(pyridin-3-yl)-2,3-dihydropyridazine-4-carboxamide]	–	214 nM	> 20000 nM	0.1 µM	88% and 97%
Cn1cc(-n2nc(-c3ccc(C(F)(F)F)cc3)cc(C(=O)N[C@H](CO)C(F)(F)F)c2=O)cn1 [Example 36, 2-(1-Methyl-1H-pyrazol-4-yl)-3-oxo-N-[(2R)-1,1,1-trifluoro-3-hydroxypropan-2-yl]-6-[4-(trifluoromethyl)phenyl]-2,3-dihydropyridazine-4-carboxamide]	–	–	> 20000 nM	1 µM	74% and 65%
COC[C@H](CO)NC(=O)c1cc(-c2ccc(Cl)cc2)nn(-c2cnn(C)c2)c1=O [Example 29, 6-(4-Chlorophenyl)-N-[(2S)-1-hydroxy-3-methoxypropan-2-yl]-2-(1-methyl-1H-pyrazol-4-yl)-3-oxo-2,3-dihydropyridazine-4-carboxamide]	–	76.1 nM	> 20000 nM	1 µM	66% and 88%

Second part, led by results:

IC50 [1]	IC50 [3]	IC50 [4]	Structure (SMILES)	Individual Donors Conc of highest rescue [2]	Individual Donors % rescue TNFα normalised to ref cmpd [2]
11.1 nM	12.2 nM	> 20000 nM	O=C(N[C@H]1CCC[C@H]1O)c1cc(-c2ccc(OC(F)(F)F)cc2)nn(-c2cccnc2)c1=O [Example 147, N-[(1S,2R)-2-Hydroxycyclopentyl]-3-oxo-2-(pyridin-3-yl)-6-[4-(trifluoromethoxy)phenyl]-2,3-dihydropyridazine-4-carboxamide]	0.1 µM and 0.3 µM	50% and 89%
–	3.31 nM	> 20000 nM	O=C(NC(CO)C(F)(F)F)c1cc(-c2ccc(C(F)(F)F)cc2)nn(-c2cccnc2)c1=O (racemic) [Example 110, 3-Oxo-2-(pyridin-3-yl)-N-[(2RS)-1,1,1-trifluoro-3-hydroxypropan-2-yl]-6-[4-(trifluoromethyl)phenyl]-2,3-dihydropyridazine-4-carboxamide]	0.1 µM and 0.3 µM	85% and 42%
105 nM	48.3 nM	> 20000 nM	O=C(NC[C@@H](O)CO)c1cc(-c2ccc(C(F)(F)F)cc2)nn(-c2cccnc2)c1=O [Example 113, N-[(2R)-2,3-Dihydroxypropyl]-3-oxo-2-(pyridin-3-yl)-6-[4-(trifluoromethyl)phenyl]-2,3-dihydropyridazine-4-carboxamide]	1 µM	91% and 51%
–	131 nM	> 20000 nM	CC(C)(O)C(NC(=O)c1cc(-c2ccc(Cl)cc2)nn(-c2cncnc2)c1=O)C(F)(F)F (single isomer, unassigned) [Example 186, 6-(4-Chlorophenyl)-3-oxo-2-(pyrimidin-5-yl)-N-(1,1,1-trifluoro-3-hydroxy-3-methylbutan-2-yl)-2,3-dihydropyridazine-4-carboxamide]	0.1 µM and 0.3 µM	65% and 108%
–	3810 nM	> 20000 nM	O=C(N[C@H]1COC[C@H]1O)c1cc(-c2ccc(C(F)F)nc2)nn(-c2cccnc2)c1=O (single isomer, unassigned) [Example 184, 6-[6-(Difluoromethyl)pyridin-3-yl]-N-[(cis)-4-hydroxytetrahydrofuran-3-yl]-3-oxo-2-(pyridin-3-yl)-2,3-dihydropyridazine-4-carboxamide]	0.1 µM and 1 µM	63% and 62%
